One data set concerns the target Histone deacetylase 1 (Homo sapiens, UniProt Q13547). Briefly: Inhibition of recombinant HDAC1 (unknown origin) using Boc-Lys(acetyl)-AMC as substrate preincubated for 1 hr followed by substrate addition and measured after 2 hrs by fluorescence based microplate reader analysis.
In data set [1] the target is T1, Histone deacetylase 2 (Homo sapiens, UniProt Q92769). Kind of data set: Inhibition of recombinant HDAC2 (unknown origin) using Boc-Lys(acetyl)-AMC as substrate preincubated for 1 hr followed by substrate addition and measured after 2 hrs by fluorescence based microplate reader analysis.
T1 sequence (Q92769 whole entry): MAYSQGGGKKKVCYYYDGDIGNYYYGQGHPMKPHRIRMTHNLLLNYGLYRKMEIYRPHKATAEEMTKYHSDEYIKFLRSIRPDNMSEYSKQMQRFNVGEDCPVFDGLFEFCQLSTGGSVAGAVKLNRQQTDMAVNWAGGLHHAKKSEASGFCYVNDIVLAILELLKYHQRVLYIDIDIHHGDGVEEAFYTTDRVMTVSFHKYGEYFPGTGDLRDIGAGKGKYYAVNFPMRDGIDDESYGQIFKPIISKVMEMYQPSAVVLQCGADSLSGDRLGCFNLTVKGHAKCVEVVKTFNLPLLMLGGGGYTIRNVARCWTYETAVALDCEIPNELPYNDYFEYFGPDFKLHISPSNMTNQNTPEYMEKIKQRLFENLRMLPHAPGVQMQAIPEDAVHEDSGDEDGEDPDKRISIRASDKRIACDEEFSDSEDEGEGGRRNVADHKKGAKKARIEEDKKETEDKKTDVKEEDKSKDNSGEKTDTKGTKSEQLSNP
In another data set the target is Histone deacetylase 5 (Homo sapiens, UniProt Q9UQL6). Kind of data set: Inhibition of recombinant HDAC5 (unknown origin) using Boc-Lys (trifluoroacetyl) AMC as substrate preincubated for 1 hr followed by substrate addition and measured after 2 hrs by fluorescence based microplate reader analysis.
Chain of Histone deacetylase 5 (Q9UQL6 whole entry): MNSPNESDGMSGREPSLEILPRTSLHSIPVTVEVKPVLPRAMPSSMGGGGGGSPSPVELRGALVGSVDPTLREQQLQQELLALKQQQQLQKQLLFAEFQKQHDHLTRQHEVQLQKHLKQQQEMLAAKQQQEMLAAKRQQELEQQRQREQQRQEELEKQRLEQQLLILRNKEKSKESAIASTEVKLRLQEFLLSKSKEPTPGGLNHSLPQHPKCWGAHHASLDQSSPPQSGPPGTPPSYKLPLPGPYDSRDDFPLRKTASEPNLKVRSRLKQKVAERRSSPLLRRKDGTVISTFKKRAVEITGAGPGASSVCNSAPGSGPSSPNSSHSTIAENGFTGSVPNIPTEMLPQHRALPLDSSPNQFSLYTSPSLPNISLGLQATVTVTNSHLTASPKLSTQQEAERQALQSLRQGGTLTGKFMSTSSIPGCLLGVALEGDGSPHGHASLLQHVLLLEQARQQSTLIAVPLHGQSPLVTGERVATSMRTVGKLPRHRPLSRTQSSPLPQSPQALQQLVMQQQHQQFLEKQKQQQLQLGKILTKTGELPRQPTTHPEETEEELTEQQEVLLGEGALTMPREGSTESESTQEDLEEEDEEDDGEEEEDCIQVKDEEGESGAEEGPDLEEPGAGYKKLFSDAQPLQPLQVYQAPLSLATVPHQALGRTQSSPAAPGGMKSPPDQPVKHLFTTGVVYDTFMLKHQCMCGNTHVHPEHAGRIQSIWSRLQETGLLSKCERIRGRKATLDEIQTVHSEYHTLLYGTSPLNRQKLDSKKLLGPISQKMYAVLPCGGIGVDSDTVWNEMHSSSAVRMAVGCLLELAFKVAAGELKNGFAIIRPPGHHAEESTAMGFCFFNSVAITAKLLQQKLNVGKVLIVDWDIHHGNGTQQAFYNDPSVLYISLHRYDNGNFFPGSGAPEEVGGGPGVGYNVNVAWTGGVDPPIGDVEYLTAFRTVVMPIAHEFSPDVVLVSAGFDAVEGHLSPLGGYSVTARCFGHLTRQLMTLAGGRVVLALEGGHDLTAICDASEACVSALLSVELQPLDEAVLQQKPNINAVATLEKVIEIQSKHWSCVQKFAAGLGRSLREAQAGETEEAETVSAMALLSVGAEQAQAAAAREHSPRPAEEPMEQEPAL
A further data set has as its target Histone deacetylase 9 (Homo sapiens, UniProt Q9UKV0). Briefly: Inhibition of recombinant HDAC9 (unknown origin) using Boc-Lys (trifluoroacetyl) AMC as substrate preincubated for 1 hr followed by substrate addition and measured after 2 hrs by fluorescence based microplate reader analysis.
Data set [2] deals with T2, Protein deacetylase HDAC6 (Homo sapiens, UniProt Q9UBN7).
T2 sequence (Q9UBN7 whole entry): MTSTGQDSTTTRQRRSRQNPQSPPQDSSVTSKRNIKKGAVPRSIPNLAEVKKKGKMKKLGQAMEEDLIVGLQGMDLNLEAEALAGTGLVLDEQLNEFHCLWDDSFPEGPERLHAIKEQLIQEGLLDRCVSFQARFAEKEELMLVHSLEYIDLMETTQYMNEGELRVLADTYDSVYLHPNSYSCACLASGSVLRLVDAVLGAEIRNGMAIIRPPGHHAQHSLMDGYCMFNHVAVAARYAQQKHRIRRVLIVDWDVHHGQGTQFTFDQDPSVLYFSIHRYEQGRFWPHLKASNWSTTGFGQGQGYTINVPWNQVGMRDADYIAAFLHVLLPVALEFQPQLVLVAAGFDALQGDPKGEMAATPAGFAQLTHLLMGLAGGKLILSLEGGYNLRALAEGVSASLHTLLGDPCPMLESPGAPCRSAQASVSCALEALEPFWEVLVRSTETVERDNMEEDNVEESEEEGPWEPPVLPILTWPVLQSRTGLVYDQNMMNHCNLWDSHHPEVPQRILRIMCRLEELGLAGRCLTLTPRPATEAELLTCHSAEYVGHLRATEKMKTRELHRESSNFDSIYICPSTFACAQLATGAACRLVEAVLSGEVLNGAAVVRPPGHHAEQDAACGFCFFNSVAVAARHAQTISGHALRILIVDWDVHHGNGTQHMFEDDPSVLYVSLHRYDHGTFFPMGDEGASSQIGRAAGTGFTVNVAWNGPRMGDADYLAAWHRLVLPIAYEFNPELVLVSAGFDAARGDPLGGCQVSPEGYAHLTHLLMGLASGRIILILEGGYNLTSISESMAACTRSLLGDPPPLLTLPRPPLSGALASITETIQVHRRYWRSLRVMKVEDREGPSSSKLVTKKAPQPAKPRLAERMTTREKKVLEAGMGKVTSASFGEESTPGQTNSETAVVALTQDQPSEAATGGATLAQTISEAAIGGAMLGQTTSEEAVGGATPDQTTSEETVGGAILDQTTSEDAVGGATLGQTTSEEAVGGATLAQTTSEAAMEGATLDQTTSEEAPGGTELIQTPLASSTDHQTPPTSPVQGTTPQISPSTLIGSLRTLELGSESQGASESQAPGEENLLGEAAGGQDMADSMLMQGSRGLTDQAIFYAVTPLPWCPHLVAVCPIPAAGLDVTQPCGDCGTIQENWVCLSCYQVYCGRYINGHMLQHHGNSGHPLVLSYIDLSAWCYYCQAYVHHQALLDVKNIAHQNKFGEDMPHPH
Briefly: Inhibition of recombinant HDAC6 (unknown origin) using Boc-Lys(acetyl)-AMC as substrate preincubated for 60 mins followed by substrate addition and measured after 2 hrs by fluorescence based microplate reader analysis.

Data set [3] can be described thus: Oral bioavailability in CD-1 mouse at 20 mg/kg measured after 0.083 to 24 hrs by LC-MS/MS analysis. The class given is ADME, organism-based. The conditions noted are these: in vivo, time 0.083-24 hrs.
Data set [4] is described as follows: Brain concentration in CD-1 mouse at 20 mg/kg measured after 0.5 hrs by LC-MS/MS analysis. Conditions: read-out: Ct. The class given is ADME, organism-based.
A further data set has as its system J774.A1. Briefly: Inhibition of HDAC6/dynein interaction in mouse J774.A1 cells measured after 8 hrs by co-immunoprecipitation based Western blotting analysis. The class given is cell-based.
Data set [5] in a line: Acute toxicity in LPS-induced endotoxic shock C57BL/6 mouse model assessed as effect on body weight at 500 mg/kg, po administered as single dose for 15 days. The conditions noted are these: in vivo, 360 h, time 15 day. The data set is classed as organism-based.
The subject of data set [6] is Mus musculus. Kind of data set: Inhibition of LPS-induced endotoxic shock in C57BL/6 mouse model serum assessed as decrease in IL-1beta level at 20 mg/kg, ip measured after 12 hrs. The data set is classed as functional, organism-based.
Another data set concerns HEK293. Kind of data set: Cytotoxicity against human HEK293 cells assessed as reduction in cell viability at 100 uM measured after 48 hrs by spectrophotometric analysis. Conditions: hek293, 48 h. The class given is toxicity, cell-based.
In a further data set the test system is NCM460. Kind of data set: Cytotoxicity against human NCM460 cells assessed as reduction in cell viability at 100 uM measured after 48 hrs by spectrophotometric analysis. The conditions noted are these: ncm460, 48 h. The data set is classed as toxicity, cell-based.
The test system of data set [7] is Mus musculus. Briefly: Inhibition of LPS-induced endotoxic shock in C57BL/6 mouse model serum assessed as decrease in IL-1beta level at 10 mg/kg, ip pretreated for 1 hr followed by LPS addition measured after 12 hrs. The data set is classed as functional, organism-based. The conditions noted are these: time 13.0 hrs.
The nature of data set [8]: Plasma concentration in CD-1 mouse at 20 mg/kg measured after 1 hrs by LC-MS/MS analysis. The class given is ADME, organism-based.
The nature of data set [9]: Ratio of drug concentration in brain to plasma of CD-1 mouse measured after 1 hrs by LC-MS/MS analysis. The data set is classed as ADME.
A short description of data set [10]: Plasma concentration in CD-1 mouse at 20 mg/kg measured after 2 hrs by LC-MS/MS analysis. The class given is ADME, organism-based.
A short description of data set [11]: Ratio of drug concentration in brain to plasma of CD-1 mouse measured after 2 hrs by LC-MS/MS analysis. The data set is classed as ADME. Conditions: read-out: BPR.
The nature of data set [12]: Plasma concentration in CD-1 mouse at 20 mg/kg measured after 4 hrs by LC-MS/MS analysis. The data set is classed as ADME, organism-based.
In data set [13] the target is T1, Histone deacetylase 2. Briefly: Binding affinity to recombinant HDAC2 (unknown origin) assessed as inhibition constant using Boc-Lys(acetyl)-AMC as substrate preincubated for 1 hr followed by substrate addition and measured after 2 hrs by fluorescence based microplate reader analysis.
Another data set addresses Histone deacetylase 3 (Homo sapiens, UniProt O15379). Briefly: Binding affinity to recombinant HDAC3 (unknown origin) assessed as inhibition constant using Boc-Lys(acetyl)-AMC as substrate preincubated for 1 hr followed by substrate addition and measured after 2 hrs by fluorescence based microplate reader analysis.

Calls of active or inactive are those of the source. The rule behind the calls is not given here.

Chain of Histone deacetylase 9 (Q9UKV0 whole entry): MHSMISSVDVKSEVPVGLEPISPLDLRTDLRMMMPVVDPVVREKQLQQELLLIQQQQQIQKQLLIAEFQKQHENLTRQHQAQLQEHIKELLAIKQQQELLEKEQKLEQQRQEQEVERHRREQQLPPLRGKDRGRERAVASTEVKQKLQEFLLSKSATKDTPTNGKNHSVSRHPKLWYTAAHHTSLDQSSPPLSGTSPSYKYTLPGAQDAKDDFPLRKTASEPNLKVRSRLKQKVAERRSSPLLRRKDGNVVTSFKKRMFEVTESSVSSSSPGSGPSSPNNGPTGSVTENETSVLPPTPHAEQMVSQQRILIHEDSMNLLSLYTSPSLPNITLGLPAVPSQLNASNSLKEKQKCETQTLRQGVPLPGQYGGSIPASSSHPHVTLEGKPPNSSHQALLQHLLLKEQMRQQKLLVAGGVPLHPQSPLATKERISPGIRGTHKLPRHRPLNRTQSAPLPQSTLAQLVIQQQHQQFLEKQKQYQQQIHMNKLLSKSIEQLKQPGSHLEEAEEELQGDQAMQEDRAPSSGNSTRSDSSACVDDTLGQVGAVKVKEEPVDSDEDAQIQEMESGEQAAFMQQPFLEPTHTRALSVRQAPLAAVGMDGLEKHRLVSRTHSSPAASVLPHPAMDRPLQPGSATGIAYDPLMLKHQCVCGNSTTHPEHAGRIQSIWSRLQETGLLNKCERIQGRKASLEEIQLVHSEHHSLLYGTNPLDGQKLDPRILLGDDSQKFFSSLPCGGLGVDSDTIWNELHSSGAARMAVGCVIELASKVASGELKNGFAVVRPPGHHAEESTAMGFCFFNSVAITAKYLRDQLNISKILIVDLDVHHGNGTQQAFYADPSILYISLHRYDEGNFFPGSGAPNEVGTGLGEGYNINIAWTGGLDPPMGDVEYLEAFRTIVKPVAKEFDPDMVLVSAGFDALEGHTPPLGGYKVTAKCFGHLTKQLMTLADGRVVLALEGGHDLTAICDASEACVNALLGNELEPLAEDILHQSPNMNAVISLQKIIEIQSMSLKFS
Chain of Histone deacetylase 3 (O15379 whole entry): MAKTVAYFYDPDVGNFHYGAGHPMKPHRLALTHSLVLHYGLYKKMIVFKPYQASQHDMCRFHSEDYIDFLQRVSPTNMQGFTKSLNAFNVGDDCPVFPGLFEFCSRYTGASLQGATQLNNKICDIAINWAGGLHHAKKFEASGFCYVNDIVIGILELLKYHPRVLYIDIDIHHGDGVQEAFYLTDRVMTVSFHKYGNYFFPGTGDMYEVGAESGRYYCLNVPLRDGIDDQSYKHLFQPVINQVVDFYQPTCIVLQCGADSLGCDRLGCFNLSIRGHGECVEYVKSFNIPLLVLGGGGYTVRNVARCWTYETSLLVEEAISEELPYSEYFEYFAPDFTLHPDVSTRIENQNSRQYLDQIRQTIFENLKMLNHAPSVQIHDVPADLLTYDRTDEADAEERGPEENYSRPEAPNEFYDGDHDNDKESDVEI
Chain of Histone deacetylase 1 (Q13547 whole entry): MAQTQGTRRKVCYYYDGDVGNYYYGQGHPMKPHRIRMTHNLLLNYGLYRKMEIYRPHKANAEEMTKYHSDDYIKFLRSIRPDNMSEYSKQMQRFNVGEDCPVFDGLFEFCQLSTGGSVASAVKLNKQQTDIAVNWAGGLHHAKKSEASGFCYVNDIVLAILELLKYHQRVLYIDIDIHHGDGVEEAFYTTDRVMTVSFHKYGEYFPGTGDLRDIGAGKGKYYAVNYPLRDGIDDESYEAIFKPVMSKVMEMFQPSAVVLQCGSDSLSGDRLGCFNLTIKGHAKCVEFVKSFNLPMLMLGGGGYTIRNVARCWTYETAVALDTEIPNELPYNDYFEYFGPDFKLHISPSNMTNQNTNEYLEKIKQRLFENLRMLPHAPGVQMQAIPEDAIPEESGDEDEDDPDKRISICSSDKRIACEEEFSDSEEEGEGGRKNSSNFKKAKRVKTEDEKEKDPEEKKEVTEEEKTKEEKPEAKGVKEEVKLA

The IC50 is the concentration at which inhibition is half-maximal. One may read the bioavailability as the share of a dose that reaches the circulation, judged against a reference dose that is usually intravenous. The low end stands for little systemic uptake, the high end for much systemic uptake. Usually Ki stands for the equilibrium dissociation constant of an inhibitor or competing ligand from its target. For `CCNNC(=O)c1ccc(CN2c3ccccc3C=Cc3ccncc32)cc1`, the IC50 was 1.53 µM on Histone deacetylase 1; 2.06 µM at Histone deacetylase 2 [1]; more than 5 µM at Histone deacetylase 5; more than 5 µM at Histone deacetylase 9; 0.0325 µM in data set [2]. In [3], this compound returned a bioavailability of 93.4%. Besides, in data set [4], the concentration at 0.5 h was 11.3 µg/mL. Also, the inhibition result in the data set with J774.A1 is “Active”. Also, the Activity entry (in data set [5]; with HEK293; in the data set with NCM460) was “Non-Toxic” in each case. The outcome with Mus musculus [6] and with Mus musculus [7] was Active. The compound further came in with a concentration at 1 h in [8] of 5.88 µg/mL. Besides, the Kp at 1 h in [9] is 1.26. Besides, in [10], the concentration at 2 h was found to be 2.32 µg/mL. Besides, in data set [11], the Kp at 2 h worked out at 1.42. In addition, the concentration at 4 h in data set [12] turned out to be 0.162 µg/mL. Further, the figures for the Ki on Histone deacetylase 2 [13] and on Histone deacetylase 3 were 1.04 µM and 0.43 µM, respectively.

(Values after ChEMBL document CHEMBL5113527, “First-in-Class Hydrazide-Based HDAC6 Selective Inhibitor with Potent Oral Anti-Inflammatory Activity by Attenuating NLRP3 Inflammasome Activation” (J Med Chem, 2022).)
